Experimental data taken from US20250101042A1, “KRAS G12D MODULATING COMPOUNDS” (Gilead Sciences, Inc., priority 2023, published 2025).

How the values were obtained:
GDP-loaded KRAS G12D = GDP-loaded KRAS G12D (Homo sapiens, UniProt P01116, G12D); experiment: KRAS G12D (GDP) Biochemical Assay (TR-FRET probe displacement); format: binding; details: 0.5 nM enzyme, 2 hours at room temperature
Procedure: Example A. KRAS G12D (GDP) Biochemical Assay
Compounds were tested for binding to GDP-loaded KRAS G12D in a 384-well assay format using a TR-FRET probe displacement assay in buffer consisting of 50 mM Hepes (pH 7.4), 150 mM NaCl, 5 mM MgCl2 and 0.005% Tween-20. […] Compounds were serially diluted (1:3) in DMSO. The LabCyte ECHO Acoustic dispenser system was used to pre-spot the assay plates (384-well Non-Binding Surface plates, Corning, Catalog #3824) with 50 nL of compound. The compounds were pre-incubated with 5 μL of 2× final enzyme concentration for 30 minutes before adding 5 μL of 2× final concentration of Eu-streptavidin and TR-FRET probe (10 μL final reaction volume). The plates were incubated at room temperature for 2 hours before measuring TR-FRET ratio on the Envision plate reader. IC50 values were defined as the compound concentration that causes a 50% decrease in TR-FRET ratio and were calculated using a sigmoidal dose-response model to generate curve fits.

GP2D (KRAS G12D) cells = experiment: 2D Cell Viability Assay (CellTiter-Glo); format: cell-based; details: 4 days, CellTiter-Glo luminescence
Procedure: Example B. 2D Cell Viability Assay
Compounds were tested in a 384-well format for their ability to inhibit the viability of GP2D (KRAS G12D) cells in 2D assays. Compounds were serially diluted (1:3) in DMSO. The LabCyte ECHO Acoustic dispenser system was used to pre-spot assay plates with 200 nL of test molecule per well. 1000 cells/well (40 μL volume per well) in RPMI medium with 10% FBS, and Penicillin-Streptomycin-Glutamine were plated in pre-spotted 384-well plates (Greiner, Catalog #781076) on the BioTEK EL406 liquid dispenser with a 5 μL dispensing cassette (BioTek 7170011). The plates were incubated at 37° C., 5% CO2 for 4 days before addition of CellTiter-Glo (CTG) reagent and measurement of luminescence signal. EC50 values were defined as the compound concentration that causes a 50% decrease in luminescence signal and were calculated using a sigmoidal dose-response model to generate curve fits.

GDP-loaded KRAS G12D, sequence (P01116 1-188 isoform P01116-2 G12D): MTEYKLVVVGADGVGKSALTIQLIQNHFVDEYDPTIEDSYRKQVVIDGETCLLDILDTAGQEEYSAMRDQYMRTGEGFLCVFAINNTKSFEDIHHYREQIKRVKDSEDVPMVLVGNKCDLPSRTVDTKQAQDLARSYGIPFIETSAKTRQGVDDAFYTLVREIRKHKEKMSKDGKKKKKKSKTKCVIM

Question: What does the source list for `Cc1cc(N)nc(-c2c(C)c3c4c(nc(OC[C@@]56CCCN5C[C@H](F)C6)nc4c2F)N2C[C@H]4CC[C@H](N4)[C@H]2CC3)c1C(F)(F)F` [Example 10, 6-((1S,4R,14aR)-10-fluoro-8-(((2R,7aS)-2-fluorotetrahydro-1H-pyrrolizin-7a(5H)-yl)methoxy)-12-methyl-1,2,3,4,5,13,14,14a-octahydro-1,4-epiminoazepino[1′,2′:1,7]azepino[2,3,4-de]quinazolin-11-yl)-4-methyl-5-(trifluoromethyl)pyridin-2-amine]?
Answer: IC50 (GDP-loaded KRAS G12D): 0.29 nM; EC50 (GP2D (KRAS G12D) cells; GP2d, 96 h): 10 nM

Question: What does the source list for `C#Cc1c(F)ccc2cc(N)nc(-c3c(F)c4c5c(nc(OC[C@@]67CCCN6C[C@H](F)C7)nc5c3F)N3C[C@H]5CC[C@H](N5)[C@@H]3[C@@H](C)C4)c12` (atropisomer, axis not shown; (aS)) [Example 45, 1-((1S,4R,11S,14S,14aS)-10,12-difluoro-8-(((2R,7aS)-2-fluorotetrahydro-1H-pyrrolizin-7a(5H)-yl)methoxy)-14-methyl-1,2,3,4,5,13,14,14a-octahydro-1,4-epiminoazepino[1′,2′:1,7]azepino[2,3,4-de]quinazolin-11-yl)-8-ethynyl-7-fluoroisoquinolin-3-amine]?
Answer: IC50 (GDP-loaded KRAS G12D): 0.04 nM; EC50 (GP2D (KRAS G12D) cells; GP2d, 96 h): 2.2 nM

Question: `Nc1nc2c(F)ccc(-c3nc4c5c(nc(OC[C@@]67CCCN6C[C@H](F)C7)nc5c3F)N3C[C@H]5CC[C@H](N5)[C@H]3CC4)c2s1` [Example 20, 4-fluoro-7-((5aR,6S,9R)-1-fluoro-12-(((2R,7aS)-2-fluorotetrahydro-1H-pyrrolizin-7a(5H)-yl)methoxy)-4,5,5a,6,7,8,9,10-octahydro-3,10a,11,13,14-pentaaza-6,9-methanonaphtho[1,8-ab]heptalen-2-yl)benzo[d]thiazol-2-amine] was tested. Which IC50 (GDP-loaded KRAS G12D) did it give?
Answer: 8.2 nM

Question: What about the EC50 (GP2D (KRAS G12D) cells; GP2d, 96 h) of the same compound?
Answer: > 100 nM

Question: `Cc1cc(N)nc(-c2c(F)c3c4c(nc(OC[C@@]56CCCN5C[C@H](F)C6)nc4c2F)N2C[C@H]4CC[C@H](N4)[C@H]2CC3)c1C(F)(F)F` [Example 19, 6-((1S,4R,14aR)-10,12-difluoro-8-(((2R,7aS)-2-fluorotetrahydro-1H-pyrrolizin-7a(5H)-yl)methoxy)-1,2,3,4,5,13,14,14a-octahydro-1,4-epiminoazepino[1′,2′:1,7]azepino[2,3,4-de]quinazolin-11-yl)-4-methyl-5-(trifluoromethyl)pyridin-2-amine] was tested. Which IC50 (GDP-loaded KRAS G12D) did it give?
Answer: 0.18 nM

Question: What about the EC50 (GP2D (KRAS G12D) cells; GP2d, 96 h) of the same compound?
Answer: 3.3 nM

Question: `Cc1cc(N)nc(-c2c(Cl)c3c4c(nc(OC[C@@]56CCCN5C[C@H](F)C6)nc4c2F)N2C[C@H]4CC[C@H](N4)[C@H]2CC3)c1C(F)(F)F` (single isomer, unassigned) [Example 6] was tested. Which IC50 (GDP-loaded KRAS G12D) did it give?
Answer: 0.05 nM

Question: What about the EC50 (GP2D (KRAS G12D) cells) of the same compound?
Answer: 1.2 nM

Question: Which IC50 (GDP-loaded KRAS G12D) does the source give for `Cc1c(F)c(N)nc(-c2nc3c4c(nc(OC[C@@]56CCCN5C[C@H](F)C6)nc4c2F)N2C[C@H]4CC[C@H](N4)[C@H]2CCC3)c1C(F)(F)F` [Example 11, 3-fluoro-6-((6aR,7S,10R)-1-fluoro-13-(((2R,7aS)-2-fluorotetrahydro-1H-pyrrolizin-7a(5H)-yl)methoxy)-5,6,6a,7,8,9,10,11-octahydro-4H-3,11a,12,14,15-pentaaza-7,10-methanocyclohepta[4,5]cycloocta[1,2,3-de]naphthalen-2-yl)-4-methyl-5-(trifluoromethyl)pyridin-2-amine] here?
Answer: 12 nM

Question: What about the EC50 (GP2D (KRAS G12D) cells; GP2d, 96 h) of the same compound?
Answer: 34 nM

Question: How did the IC50 (GDP-loaded KRAS G12D) turn out when `C[C@H]1Cc2nc(-c3cccc4sc(N)c(C#N)c34)c(F)c3nc(OC[C@@]45CCCN4C[C@H](F)C5)nc(c23)N2C[C@H]3CC[C@H](N3)[C@H]12` [Example 13, 2-amino-4-((5S,5aS,6S,9R)-1-fluoro-12-(((2R,7aS)-2-fluorotetrahydro-1H-pyrrolizin-7a(5H)-yl)methoxy)-5-methyl-4,5,5a,6,7,8,9,10-octahydro-3,10a,11,13,14-pentaaza-6,9-methanonaphtho[1,8-ab]heptalen-2-yl)benzo[b]thiophene-3-carbonitrile] was run?
Answer: 0.45 nM

Question: And the EC50 (GP2D (KRAS G12D) cells; GP2d, 96 h)?
Answer: 2 nM

Question: `N#Cc1c(N)sc2cccc(-c3nc4c5c(nc(OC[C@@]67CCCN6C[C@H](F)C7)nc5c3F)N3C[C@H]5CC[C@H](N5)[C@H]3CCC4)c12` [Example 12, 2-amino-4-((6aR,7S,10R)-1-fluoro-13-(((2R,7aS)-2-fluorotetrahydro-1H-pyrrolizin-7a(5H)-yl)methoxy)-5,6,6a,7,8,9,10,11-octahydro-4H-3,11a,12,14,15-pentaaza-7,10-methanocyclohepta[4,5]cycloocta[1,2,3-de]naphthalen-2-yl)benzo[b]thiophene-3-carbonitrile] was tested. Which IC50 (GDP-loaded KRAS G12D) did it give?
Answer: 0.17 nM

Question: And the EC50 (GP2D (KRAS G12D) cells; GP2d, 96 h)?
Answer: 3.5 nM

Question: Which IC50 (GDP-loaded KRAS G12D) does the source give for `Cc1cc(N)nc(-c2nc3c4c(nc(OC[C@@]56CCCN5C[C@H](F)C6)nc4c2F)N2C[C@H]4CC[C@H](N4)[C@H]2C[C@H](C)C3)c1C(F)(F)F` [Example 18, 6-((5S,6aR,7S,10R)-1-fluoro-13-(((2R,7aS)-2-fluorotetrahydro-1H-pyrrolizin-7a(5H)-yl)methoxy)-5-methyl-5,6,6a,7,8,9,10,11-octahydro-4H-3,11a,12,14,15-pentaaza-7,10-methanocyclohepta[4,5]cycloocta[1,2,3-de]naphthalen-2-yl)-4-methyl-5-(trifluoromethyl)pyridin-2-amine] here?
Answer: 83 nM

Question: And the EC50 (GP2D (KRAS G12D) cells; GP2d, 96 h)?
Answer: > 100 nM

Question: With `Cc1cc(N)nc(-c2nc3c4c(nc(OC[C@@]56CCCN5C[C@H](F)C6)nc4c2F)N2C[C@H]4CC[C@H](N4)[C@H]2CC3)c1C(F)(F)F` [Example 1, 6-((5aR,6S,9R)-1-fluoro-12-(((2R,7aS)-2-fluorotetrahydro-1H-pyrrolizin-7a(5H)-yl)methoxy)-4,5,5a,6,7,8,9,10-octahydro-3,10a,11,13,14-pentaaza-6,9-methanonaphtho[1,8-ab]heptalen-2-yl)-4-methyl-5-(trifluoromethyl)pyridin-2-amine] as the compound, how does the IC50 (GDP-loaded KRAS G12D) read?
Answer: 0.84 nM

Question: And the EC50 (GP2D (KRAS G12D) cells; GP2d, 96 h)?
Answer: 16 nM

Question: `C#Cc1c(F)ccc2cc(N)nc(-c3c(Cl)c4c5c(nc(OC[C@@]67CCCN6C[C@H](F)C7)nc5c3F)N3C[C@H]5CC[C@H](N5)[C@H]3CC4)c12` [Example 23, 1-((1S,4R,14aR)-12-chloro-10-fluoro-8-(((2R,7aS)-2-fluorotetrahydro-1H-pyrrolizin-7a(5H)-yl)methoxy)-1,2,3,4,5,13,14,14a-octahydro-1,4-epiminoazepino[1′,2′:1,7]azepino[2,3,4-de]quinazolin-11-yl)-8-ethynyl-7-fluoroisoquinolin-3-amine] was tested. Which IC50 (GDP-loaded KRAS G12D) did it give?
Answer: 0.16 nM

Question: And the EC50 (GP2D (KRAS G12D) cells; GP2d, 96 h)?
Answer: 6.1 nM

Question: Which IC50 (GDP-loaded KRAS G12D) does the source give for `Cc1cc(N)nc(-c2nc3c4c(nc(OC[C@@]56CCCN5C[C@H](F)C6)nc4c2F)N2C[C@H]4CC[C@H](N4)[C@@H]2[C@@H](C)C3)c1C(F)(F)F` [Example 17, 6-((5S,5aS,6S,9R)-1-fluoro-12-(((2R,7aS)-2-fluorotetrahydro-1H-pyrrolizin-7a(5H)-yl)methoxy)-5-methyl-4,5,5a,6,7,8,9,10-octahydro-3,10a,11,13,14-pentaaza-6,9-methanonaphtho[1,8-ab]heptalen-2-yl)-4-methyl-5-(trifluoromethyl)pyridin-2-amine] here?
Answer: 6.1 nM

Question: What about the EC50 (GP2D (KRAS G12D) cells; GP2d, 96 h) of the same compound?
Answer: 25 nM

Question: Which results are given for `Nc1cc(Cl)c(C(F)F)c(-c2nc3c4c(nc(OC[C@@]56CCCN5C[C@H](F)C6)nc4c2F)N2C[C@H]4CC[C@H](N4)[C@H]2CCC3)n1` [Example 24, 4-chloro-5-(difluoromethyl)-6-((6aR,7S,10R)-1-fluoro-13-(((2R,7aS)-2-fluorotetrahydro-1H-pyrrolizin-7a(5H)-yl)methoxy)-5,6,6a,7,8,9,10,11-octahydro-4H-3,11a,12,14,15-pentaaza-7,10-methanocyclohepta[4,5]cycloocta[1,2,3-de]naphthalen-2-yl)pyridin-2-amine]?
Answer: IC50 (GDP-loaded KRAS G12D): 11 nM; EC50 (GP2D (KRAS G12D) cells; GP2d, 96 h): > 100 nM

Question: Which results are given for `N#Cc1c(N)sc2c(F)ccc(-c3c(F)c4c5c(nc(OC[C@@]67CCCN6C[C@H](F)C7)nc5c3F)N3C[C@H]5CC[C@H](N5)[C@H]3CC4)c12` (single isomer, unassigned) [Example 59]?
Answer: IC50 (GDP-loaded KRAS G12D): 4.2 nM; EC50 (GP2D (KRAS G12D) cells): 24 nM

Question: Which results are given for `C[C@H]1Cc2c(Cl)c(-c3ncc(F)c4sc(N)c(C#N)c34)c(F)c3nc(OC[C@@]45CCCN4C[C@H](F)C5)nc(c23)N2C[C@H]3CC[C@H](N3)[C@H]12` (atropisomer, axis not shown; (aS)) [Example 56, 2-amino-4-((1S,4R,11S,14S,14aS)-12-chloro-10-fluoro-8-(((2R,7aS)-2-fluorotetrahydro-1H-pyrrolizin-7a(5H)-yl)methoxy)-14-methyl-1,2,3,4,5,13,14,14a-octahydro-1,4-epiminoazepino[1′,2′:1,7]azepino[2,3,4-de]quinazolin-11-yl)-7-fluorothieno[3,2-c]pyridine-3-carbonitrile]?
Answer: IC50 (GDP-loaded KRAS G12D): 0.11 nM; EC50 (GP2D (KRAS G12D) cells; GP2d, 96 h): 2 nM
